Experimental data reported in publication PMC10708353, “Malvidin and Its Mono- and Di-Glucosides Forms: A Study of Combining Both In Vitro and Molecular Docking Studies Focused on Cholinesterase, Butyrylcholinesterase, COX-1 and COX-2 Activities” (Molecules, 2023).
Where two headings read alike, the source gives them in different places. Marks after values point to notes of the source that are not given here.

Experiments:
[1] = physiological pH, species established in previous publication, cited from earlier work
[2] = biological target: T1, acetylcholinesterase from Electrophorus electricus, type VI-S (AChE) (Electrophorus electricus, UniProt O42275); experiment: Acetylcholinesterase inhibition assay (Ellman method, modified); type: biochemical
T1 construct: purchased Merck kGaA, Darmstadt, Germany
T1 sequence (O42275 24-633): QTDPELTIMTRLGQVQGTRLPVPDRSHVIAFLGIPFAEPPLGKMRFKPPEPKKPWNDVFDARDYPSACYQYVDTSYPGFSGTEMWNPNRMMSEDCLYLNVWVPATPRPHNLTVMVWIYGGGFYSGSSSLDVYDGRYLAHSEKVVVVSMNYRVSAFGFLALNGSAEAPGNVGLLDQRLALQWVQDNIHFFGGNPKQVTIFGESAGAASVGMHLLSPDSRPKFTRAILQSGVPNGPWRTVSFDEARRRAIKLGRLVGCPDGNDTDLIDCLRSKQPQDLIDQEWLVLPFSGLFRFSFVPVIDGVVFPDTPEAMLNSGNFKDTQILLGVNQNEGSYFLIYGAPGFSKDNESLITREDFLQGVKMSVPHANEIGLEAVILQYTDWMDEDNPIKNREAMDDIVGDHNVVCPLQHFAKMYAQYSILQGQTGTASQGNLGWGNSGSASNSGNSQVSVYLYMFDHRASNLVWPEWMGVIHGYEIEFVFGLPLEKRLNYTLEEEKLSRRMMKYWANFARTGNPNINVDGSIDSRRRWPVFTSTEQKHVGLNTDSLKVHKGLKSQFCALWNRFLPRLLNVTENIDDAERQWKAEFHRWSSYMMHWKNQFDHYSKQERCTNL
Excerpt: (§1) 5,5′-Dithiobis(2-nitrobenzoic acid), (DTNB), acetylthiocholine iodide, butyryl-thiocholine iodide, acetylcholinesterase from Electrophorus electricus, type VI-S (aChE), Butyrylcholinesterase from equine serum (BChE), neostigmine bromide, and sodium dodecyl sulfate (SDS) were purchased from Merck kGaA, Darmstadt, Germany.
(§2) Referring to both the Ellman and Jin et al. methods, we identified acetylcholinesterase/butyrylcholinesterase activity, implementing minor modifications. In brief, the assay was carried out on a 96-well plate, with each well containing 140 µL 0.1 M phosphate buffer (pH 8.0), 10 µL of stock solution of Mv, or Mv 3-glc or Mv 3,5-diglc, 10 µL AChE/BChE (1 units/mL). The plate was incubated for 10 min at 25 °C. Subsequently, 10 μL of a 10 mM DTNB was added to the reaction mixture. In the following step, the reaction was initiated by adding 10 μL of a 14 mM acetylthiocholine iodide/butyryl-thiocholine iodide. The plate was shaken for one minute and finally 20 µL of 5% SDS was added in order to stop the reaction. Control wells, which contained the same composition except for the studied compounds (10 µL, 70% ethanol), were included. […] All of the reactions were performed in five repetitions. The percent of AChE/BChE inhibition was calculated using the following formula:(1) %Inhibition=Ac−As/Ac·100% where: As refers to the absorbance of the sample containing Mvs and Ac refers to the absorbance of the control sample. The studies of AChE and BChE inhibition were also performed depending on the concentration of the drug, neostigmine, as a positive control.

[3] = biological target: T2, Butyrylcholinesterase from equine serum (BChE) (Equus caballus, UniProt P81908); experiment: Butyrylcholinesterase inhibition assay (Ellman method, modified); type: biochemical
T2 construct: Butyrylcholinesterase from equine serum (BChE); purchased Merck kGaA, Darmstadt, Germany; host or cells: equine serum
T2 sequence (P81908 whole entry): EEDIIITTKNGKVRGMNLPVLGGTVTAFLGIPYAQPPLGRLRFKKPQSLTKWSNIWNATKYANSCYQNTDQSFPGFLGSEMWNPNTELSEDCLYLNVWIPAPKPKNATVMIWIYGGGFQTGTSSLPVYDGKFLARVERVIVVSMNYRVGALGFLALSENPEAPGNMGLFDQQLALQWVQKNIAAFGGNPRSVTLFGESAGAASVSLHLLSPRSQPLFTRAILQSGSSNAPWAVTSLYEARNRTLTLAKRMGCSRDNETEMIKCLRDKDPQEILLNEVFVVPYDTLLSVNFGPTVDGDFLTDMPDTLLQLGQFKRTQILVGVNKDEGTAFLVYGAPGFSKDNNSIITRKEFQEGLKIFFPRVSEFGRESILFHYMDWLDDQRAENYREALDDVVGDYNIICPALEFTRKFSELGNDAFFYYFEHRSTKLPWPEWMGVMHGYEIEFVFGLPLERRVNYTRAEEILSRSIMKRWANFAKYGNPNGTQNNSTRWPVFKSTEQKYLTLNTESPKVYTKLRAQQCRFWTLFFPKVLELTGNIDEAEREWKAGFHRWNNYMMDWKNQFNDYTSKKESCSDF
Excerpt: as §1, §2

[4] = biological target: T3, COX-2 (human recombinant) (Homo sapiens, UniProt P35354); experiment: COX colorimetric inhibitor screening assay, COX-2; type: biochemical; conditions: for Selectivity Index COX-2/COX-1: ratio of IC50 COX-2 to IC50 COX-1
T3 construct: purchased Cayman Chemical, Ann Arbor, MI, USA 701050
T3 sequence (P35354 18-604): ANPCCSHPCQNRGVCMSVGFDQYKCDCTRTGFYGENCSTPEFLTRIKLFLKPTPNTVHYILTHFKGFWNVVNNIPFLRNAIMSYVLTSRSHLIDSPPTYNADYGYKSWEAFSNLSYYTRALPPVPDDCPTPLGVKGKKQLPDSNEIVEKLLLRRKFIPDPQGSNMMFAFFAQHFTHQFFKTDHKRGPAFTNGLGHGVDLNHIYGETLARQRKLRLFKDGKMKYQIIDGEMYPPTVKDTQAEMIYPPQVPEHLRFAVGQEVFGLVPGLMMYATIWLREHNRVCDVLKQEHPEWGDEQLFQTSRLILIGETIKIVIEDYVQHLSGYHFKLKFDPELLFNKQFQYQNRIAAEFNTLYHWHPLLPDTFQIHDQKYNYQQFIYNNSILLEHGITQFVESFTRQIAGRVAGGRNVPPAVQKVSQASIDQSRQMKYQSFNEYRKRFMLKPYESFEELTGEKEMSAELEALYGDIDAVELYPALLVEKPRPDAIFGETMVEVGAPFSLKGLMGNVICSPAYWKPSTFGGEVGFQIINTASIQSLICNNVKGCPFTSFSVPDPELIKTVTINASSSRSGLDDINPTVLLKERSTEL
Description: (§3) Firstly, the plate was carefully shaken for a few seconds and incubated for 5 min at 25 °C. Secondly, 20 μL of colorimetric substrate solution was added to each plate’s well. It was the addition of 20 μL of arachidonic acid (final concentration in reaction mixture 100 µM) which initiated the reaction. Thirdly, the plate was shaken again for a few seconds and incubated for two min at 25 °C. […] The percentage of COX inhibition was calculated using the Equation (1): […]
(§4) The IC50 parameter was calculated referring to plots showing the relation between percentage of COX inhibition and concentration of the compounds.

COX-1 (ovine) = biological target: T4, COX-1 (ovine) (Ovis aries, UniProt P05979); experiment: COX colorimetric inhibitor screening assay, COX-1; type: biochemical
T4 construct: purchased Cayman Chemical, Ann Arbor, MI, USA 701050
T4 sequence (P05979 25-600): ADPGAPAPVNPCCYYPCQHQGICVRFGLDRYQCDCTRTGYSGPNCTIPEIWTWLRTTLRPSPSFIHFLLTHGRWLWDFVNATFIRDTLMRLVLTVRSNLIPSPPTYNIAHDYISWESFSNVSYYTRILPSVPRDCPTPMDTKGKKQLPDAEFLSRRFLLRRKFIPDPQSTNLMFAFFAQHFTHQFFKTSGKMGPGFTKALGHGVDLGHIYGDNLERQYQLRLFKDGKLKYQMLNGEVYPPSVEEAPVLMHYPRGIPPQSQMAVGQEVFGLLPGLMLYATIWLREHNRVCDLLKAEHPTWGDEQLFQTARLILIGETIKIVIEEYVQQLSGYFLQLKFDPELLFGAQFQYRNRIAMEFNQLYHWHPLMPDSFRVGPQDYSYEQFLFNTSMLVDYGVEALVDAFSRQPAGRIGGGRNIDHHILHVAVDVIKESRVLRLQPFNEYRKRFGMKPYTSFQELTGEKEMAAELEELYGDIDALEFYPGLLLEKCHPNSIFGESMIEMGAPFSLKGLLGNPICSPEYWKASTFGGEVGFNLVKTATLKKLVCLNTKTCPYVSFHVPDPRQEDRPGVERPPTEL
Description: as §3, §4

[5] = compound concentration 100 µM, 100 µM
[6] = compound concentration 100 µM, read-out: Inhibition of AChE (%)
[7] = compound concentration 100 µM, read-out: Inhibition of BChE (%)

In the case of `COc1cc(-c2[o+]c3cc(O)cc(O)c3cc2OC2OC(CO)C(O)C(O)C2O)cc(OC)c1O` (stereo not drawn) [Mv 3-glc, malvidin 3-O-glucoside], the “fM (population of the species)” value [1] is given as 3.49%, the “fM (population of the species)” value ([1]; listed as Mv 3-glc^2−) is given as 18.33% and the “fM (population of the species)” value ([1]; listed as Mv 3-glc^−) is given as 78.18%. For the same compound, the “Inhibition of AChE (%)” value [2, 5] was 26.3 ± 3.1 ^a %, the inhibition at 100 µM ([2]; read-out: Inhibition of AChE (%), compound concentration 100 µM) was 26.3 ± 3.06% and the “Inhibition of BChE (%)” value [3, 5] was 22.1 ± 3.0 ^a %. The inhibition at 100 µM ([3]; read-out: Inhibition of BChE (%), compound concentration 100 µM) was 22.1 ± 3%, the IC50 [4] was 39.9 ± 3.02 µM and the “Selectivity Index COX-2/COX-1” value [4] was 0.53. For the same compound, the IC50 (COX-1 (ovine)) was 74.78 ± 0.06 µM.

For `CN(C)C(=O)Oc1cccc([N+](C)(C)C)c1` [Neostigmine, neostigmine bromide, reference compound], the inhibition at 0.17 µM ([2]; neostigmine concentration 0.17 µM, positive control) was 50 ± 1.2%, the IC50 ([2]; positive control) was 0.17 ± 0.01 µM and the inhibition at 20.28 µM ([3]; neostigmine concentration 20.28 µM, positive control) was 50 ± 4.2%. The IC50 ([3]; positive control) was 20.3 ± 1.7 µM.

For `COc1cc(-c2[o+]c3cc(O)cc(O)c3cc2O)cc(OC)c1O` [Mv, malvidin], the “fM (population of the species)” value [1] is given as 39.56%, the “fM (population of the species)” value ([1]; listed as Mv^2−) is given as 8.08% and the “fM (population of the species)” value ([1]; listed as Mv^3−) is given as 0.13%. For the same compound, the “fM (population of the species)” value ([1]; listed as Mv^−) was 52.15%, the inhibition at 100 µM [2, 6] was 19.5 ± 2.3% and the inhibition at 100 µM [3, 7] was 10.2 ± 2.2%. The IC50 [4] was 2.76 ± 0.16 µM, the “Selectivity Index COX-2/COX-1” value [4] was 0.22 and the IC50 (COX-1 (ovine)) was 12.4 ± 0.7 µM.

For `COc1cc(-c2[o+]c3cc(O)cc(OC4OC(CO)C(O)C(O)C4O)c3cc2OC2OC(CO)C(O)C(O)C2O)cc(OC)c1O` (stereo not drawn) [Mv 3,5-diglc, malvidin 3,5-O-diglucoside], the “fM (population of the species)” value [1] is listed as 39.19%, the “fM (population of the species)” value ([1]; listed as Mv 3,5-diglc^–) is listed as 60.70% and the inhibition at 100 µM [2, 6] is listed as 11.9 ± 4.5%. For the same compound, the inhibition at 100 µM [3, 7] was 13.4 ± 2.4%, the IC50 [4] was 66.5 ± 1.93 µM and the “Selectivity Index COX-2/COX-1” value [4] was 0.83. The IC50 (COX-1 (ovine)) was 90.4 ± 1.92 µM.
